Results on 12 compounds are retold here after patent US9605004B2, “Chemical compounds” (SYNGENTA LIMITED, priority 2013, dated 2017).

Assay [1] relates to a variety of test species. Kind of assay: Post-emergence herbicidal activity (Example 8b, Table 3). It is filed as in vivo. To be noted: application post-emergence, rate 1000 g/ha, evaluated after 13 days, scale 0-5; for Herbicidal damage score, ABUTH: Abutilon theophrasti; for Herbicidal damage score, ALOMY: Alopecurus myosuroides; for Herbicidal damage score, AMARE: Amaranthus retroflexus; for Herbicidal damage score, ECHCG: Echinochloa crus-galli; for Herbicidal damage score, SETFA: Setaria faberi; for Herbicidal damage score, ZEAMX: Zea mays. As for the experimental part: (§1) Seeds of a variety of test species were sown in standard soil in pots. After 8 days cultivation (post-emergence) under controlled conditions in a glasshouse (at 24/16° C., day/night; 14 hours light; 65% humidity), the plants were sprayed with an aqueous spray solution derived from the formulation of the technical active ingredient in acetone/water (50:50) solution containing 0.5% Tween 20 (polyoxyethelyene sorbitan monolaurate, CAS RN 9005-64-5). The test plants were then grown in a glasshouse under controlled conditions (at 24/16° C., day/night; 14 hours light; 65% humidity) and watered twice daily. After 13 days, the test was evaluated (5=total damage to plant; 0=no damage to plant).

The test system of assay [2] is a variety of test species. The assay is described as follows: Pre-emergence herbicidal activity (Example 8a, Table 2). In kind it is in vivo. Set-up: key: 0 = no damage to plant, 5 = total damage to plant. To be noted: application pre-emergence, rate 1000 g/ha, evaluated after 13 days. As for the experimental part:
as §1, with “After” for “After 8 days”, “for one day (pre-emergence)” for “(post-emergence)”

As to `CC1=C(Br)C(=O)N(c2cc(C(F)(F)F)n(C)n2)C1O` (stereo not drawn) [Compound J4], in assay [1], the “Herbicidal damage score, ABUTH” value is recorded as 5; the “Herbicidal damage score, ALOMY” value is recorded as 5; the “Herbicidal damage score, AMARE” value turned out to be 5; the “Herbicidal damage score, ECHCG” value turned out to be 5. Further, in assay [1], the “Herbicidal damage score, SETFA” value stood at 5 and the “Herbicidal damage score, ZEAMX” value is given as 5. Besides, in assay [2], the “Pre-emergence herbicidal activity, damage score ABUTH” value is given as 5; the “Pre-emergence herbicidal activity, damage score ALOMY” value was found to be 4; the “Pre-emergence herbicidal activity, damage score AMARE” value amounted to 5; the “Pre-emergence herbicidal activity, damage score ECHCG” value turned out to be 4. Besides, in assay [2], the “Pre-emergence herbicidal activity, damage score SETFA” value was found to be 5 and the “Pre-emergence herbicidal activity, damage score ZEAMX” value came out at 4.

For `CC1=C(Cl)C(=O)N(c2nn(C)c3c2CCCCC3(C)C)C1O` (stereo not drawn) [Compound E3], in assay [1], the “Herbicidal damage score, ABUTH” value is on record as 4; the “Herbicidal damage score, ALOMY” value was determined as 4; the “Herbicidal damage score, AMARE” value amounted to 5; the “Herbicidal damage score, ECHCG” value is listed as 5. Also, in assay [1], the “Herbicidal damage score, SETFA” value worked out at 4 and the “Herbicidal damage score, ZEAMX” value is listed as 2. In addition, in assay [2], the “Pre-emergence herbicidal activity, damage score ABUTH” value was found to be 4; the “Pre-emergence herbicidal activity, damage score ALOMY” value was determined as 2; the “Pre-emergence herbicidal activity, damage score AMARE” value is 5; the “Pre-emergence herbicidal activity, damage score ECHCG” value came to 4. For the same compound, in assay [2], the “Pre-emergence herbicidal activity, damage score SETFA” value amounted to 2 and the “Pre-emergence herbicidal activity, damage score ZEAMX” value amounted to 1.

With `CC1=C(Cl)C(=O)N(c2cc(/C=C/C(C)(C)C)n(C)n2)C1O` (stereo not drawn) [Compound B11], in assay [1], the “Herbicidal damage score, ABUTH” value was 5; the “Herbicidal damage score, ALOMY” value is recorded as 3; the “Herbicidal damage score, AMARE” value is 5; the “Herbicidal damage score, ECHCG” value was 5. In assay [1], the “Herbicidal damage score, SETFA” value stood at 5 and the “Herbicidal damage score, ZEAMX” value is recorded as 1. In assay [2], the “Pre-emergence herbicidal activity, damage score ABUTH” value is given as 2; the “Pre-emergence herbicidal activity, damage score ALOMY” value is given as 2; the “Pre-emergence herbicidal activity, damage score AMARE” value was determined as 4; the “Pre-emergence herbicidal activity, damage score ECHCG” value worked out at 4. Also, in assay [2], the “Pre-emergence herbicidal activity, damage score SETFA” value is reported as 3 and the “Pre-emergence herbicidal activity, damage score ZEAMX” value was 2.

Take `CC1=C(Cl)C(=O)N(c2cc(C(C)(C)C)n(C)n2)C1OC(=O)OCC(C)C` (stereo not drawn) [Compound F4]: in assay [1], the “Herbicidal damage score, ABUTH” value is given as 5; the “Herbicidal damage score, ALOMY” value amounted to 5; the “Herbicidal damage score, AMARE” value came out at 5; the “Herbicidal damage score, ECHCG” value was 5. In assay [1], the “Herbicidal damage score, SETFA” value is recorded as 5 and the “Herbicidal damage score, ZEAMX” value is reported as 5. Besides, in assay [2], the “Pre-emergence herbicidal activity, damage score ABUTH” value came out at 5; the “Pre-emergence herbicidal activity, damage score ALOMY” value is reported as 3; the “Pre-emergence herbicidal activity, damage score AMARE” value came out at 5; the “Pre-emergence herbicidal activity, damage score ECHCG” value is on record as 5. Further, in assay [2], the “Pre-emergence herbicidal activity, damage score SETFA” value turned out to be 4 and the “Pre-emergence herbicidal activity, damage score ZEAMX” value was 2.

Consider `C=CCC(C)(C)c1cc(N2C(=O)C(Cl)=C(C)C2O)nn1C` (stereo not drawn) [Compound B23], for which, in assay [1], the “Herbicidal damage score, ZEAMX” value turned out to be 4. Moreover, in assay [2], the “Pre-emergence herbicidal activity, damage score ALOMY” value turned out to be 4; the “Pre-emergence herbicidal activity, damage score ECHCG” value is 4; the “Pre-emergence herbicidal activity, damage score ZEAMX” value stood at 4.

On to `CC1=C(Cl)C(=O)N(c2cc(C(F)(F)F)n(CC(F)(F)F)n2)C1O` (stereo not drawn) [Compound C5], for which, in assay [1], the “Herbicidal damage score, ABUTH” value came out at 4; the “Herbicidal damage score, ALOMY” value came to 5; the “Herbicidal damage score, AMARE” value is 5; the “Herbicidal damage score, ECHCG” value was found to be 5. Further, in assay [1], the “Herbicidal damage score, SETFA” value is reported as 5 and the “Herbicidal damage score, ZEAMX” value turned out to be 3. In assay [2], the “Pre-emergence herbicidal activity, damage score ABUTH” value turned out to be 2; the “Pre-emergence herbicidal activity, damage score ALOMY” value stood at 3; the “Pre-emergence herbicidal activity, damage score AMARE” value was 3; the “Pre-emergence herbicidal activity, damage score ECHCG” value came to 4. Also, in assay [2], the “Pre-emergence herbicidal activity, damage score SETFA” value stood at 4 and the “Pre-emergence herbicidal activity, damage score ZEAMX” value is 2.

On to `CC1=C(Cl)C(=O)N(c2cc(I)n(C)n2)C1O` (stereo not drawn) [Compound B8, 4-chloro-2-hydroxy-1-(5-iodo-1-methyl-pyrazol-3-yl)-3-methyl-2H-pyrrol-5-one], for which, in assay [1], the “Herbicidal damage score, ABUTH” value is recorded as 5; the “Herbicidal damage score, ALOMY” value turned out to be 5; the “Herbicidal damage score, AMARE” value is reported as 5; the “Herbicidal damage score, ECHCG” value worked out at 5. In assay [1], the “Herbicidal damage score, SETFA” value turned out to be 5 and the “Herbicidal damage score, ZEAMX” value was 4. In assay [2], the “Pre-emergence herbicidal activity, damage score ABUTH” value was determined as 4; the “Pre-emergence herbicidal activity, damage score ALOMY” value is on record as 4; the “Pre-emergence herbicidal activity, damage score AMARE” value is given as 5; the “Pre-emergence herbicidal activity, damage score ECHCG” value is given as 4. Moreover, in assay [2], the “Pre-emergence herbicidal activity, damage score SETFA” value is 5 and the “Pre-emergence herbicidal activity, damage score ZEAMX” value is on record as 3.

In the case of `CCn1nc(N2C(=O)C(Cl)=C(C)C2O)c2c1C(C)(C)CC2` (stereo not drawn) [Compound E1], in assay [1], the “Herbicidal damage score, ABUTH” value is on record as 5; the “Herbicidal damage score, ALOMY” value is reported as 4; the “Herbicidal damage score, AMARE” value is 5; the “Herbicidal damage score, ECHCG” value worked out at 5. Moreover, in assay [1], the “Herbicidal damage score, SETFA” value is on record as 5 and the “Herbicidal damage score, ZEAMX” value is given as 4. Besides, in assay [2], the “Pre-emergence herbicidal activity, damage score ABUTH” value is given as 5; the “Pre-emergence herbicidal activity, damage score ALOMY” value is reported as 4; the “Pre-emergence herbicidal activity, damage score AMARE” value worked out at 5; the “Pre-emergence herbicidal activity, damage score ECHCG” value was found to be 5. Moreover, in assay [2], the “Pre-emergence herbicidal activity, damage score SETFA” value is 4 and the “Pre-emergence herbicidal activity, damage score ZEAMX” value is on record as 2.

For the compound `CC1=C(Cl)C(=O)N(c2cc(C)n(C(F)F)n2)C1O` (stereo not drawn) [Compound C12], in assay [1], the “Herbicidal damage score, ABUTH” value stood at 5; the “Herbicidal damage score, ALOMY” value is reported as 4; the “Herbicidal damage score, AMARE” value came to 5; the “Herbicidal damage score, ECHCG” value was determined as 5. For the same compound, in assay [1], the “Herbicidal damage score, SETFA” value was 5 and the “Herbicidal damage score, ZEAMX” value turned out to be 3. In assay [2], the “Pre-emergence herbicidal activity, damage score ABUTH” value worked out at 5; the “Pre-emergence herbicidal activity, damage score ALOMY” value is given as 3; the “Pre-emergence herbicidal activity, damage score AMARE” value is recorded as 5; the “Pre-emergence herbicidal activity, damage score ECHCG” value is given as 4. Besides, in assay [2], the “Pre-emergence herbicidal activity, damage score SETFA” value stood at 3 and the “Pre-emergence herbicidal activity, damage score ZEAMX” value is on record as 2.

As for `C/C=C/c1cc(N2C(=O)C(Cl)=C(C)C2O)nn1C` (stereo not drawn) [Compound B21], in assay [1], the “Herbicidal damage score, ABUTH” value was 4; the “Herbicidal damage score, ALOMY” value amounted to 2; the “Herbicidal damage score, AMARE” value came out at 4; the “Herbicidal damage score, ECHCG” value is on record as 4. In assay [1], the “Herbicidal damage score, SETFA” value is 5 and the “Herbicidal damage score, ZEAMX” value stood at 0. For the same compound, in assay [2], the “Pre-emergence herbicidal activity, damage score ABUTH” value is recorded as 2; the “Pre-emergence herbicidal activity, damage score ALOMY” value came out at 3; the “Pre-emergence herbicidal activity, damage score AMARE” value is given as 4; the “Pre-emergence herbicidal activity, damage score ECHCG” value is reported as 4. Besides, in assay [2], the “Pre-emergence herbicidal activity, damage score SETFA” value is given as 3 and the “Pre-emergence herbicidal activity, damage score ZEAMX” value is recorded as 0.

For `C=C(C)c1cc(N2C(=O)C(Cl)=C(C)C2O)nn1C` (stereo not drawn) [Compound B45], in assay [1], the “Herbicidal damage score, ABUTH” value stood at 5; the “Herbicidal damage score, ALOMY” value is listed as 5; the “Herbicidal damage score, AMARE” value was 5; the “Herbicidal damage score, ECHCG” value was 5. Further, in assay [1], the “Herbicidal damage score, SETFA” value turned out to be 5 and the “Herbicidal damage score, ZEAMX” value is on record as 4. Further, in assay [2], the “Pre-emergence herbicidal activity, damage score ABUTH” value is recorded as 5; the “Pre-emergence herbicidal activity, damage score ALOMY” value is 4; the “Pre-emergence herbicidal activity, damage score AMARE” value is given as 5; the “Pre-emergence herbicidal activity, damage score ECHCG” value stood at 5. In addition, in assay [2], the “Pre-emergence herbicidal activity, damage score SETFA” value turned out to be 5 and the “Pre-emergence herbicidal activity, damage score ZEAMX” value worked out at 3.

With `CC(C)=Cc1cc(N2C(=O)C(Cl)=C(C)C2O)nn1C` (stereo not drawn) [Compound B20], in assay [1], the “Herbicidal damage score, ALOMY” value is on record as 4 and the “Herbicidal damage score, ZEAMX” value stood at 2. In assay [2], the “Pre-emergence herbicidal activity, damage score ABUTH” value is given as 4; the “Pre-emergence herbicidal activity, damage score ALOMY” value amounted to 2; the “Pre-emergence herbicidal activity, damage score AMARE” value amounted to 4; the “Pre-emergence herbicidal activity, damage score ECHCG” value is reported as 4. Besides, in assay [2], the “Pre-emergence herbicidal activity, damage score SETFA” value came out at 4 and the “Pre-emergence herbicidal activity, damage score ZEAMX” value stood at 2.
